Test results reported in patent US9474744B2, “Beta-lactam compounds for treating diabetes” (STEM CELL MEDICINE LTD., priority 2011, dated 2016).

Key:
[1] = test system: encephalitogenic BP10 line; assay: Adoptive EAE: BP10 T-cell line stimulated in vitro with test substance, then injected into naive rats; assay type: in vivo, rat
Procedure: Antigen-specific T-cell lines were established from lymph node cells that had been stimulated with myelin basic protein (MBP; 10 μg/ml) for 3 days in stimulation medium as described below. Following stimulation, the T-cell blasts were isolated on LYMPHOPREP™ (Nycomed Pharma, Oslo, Norway) and seeded in propagation medium. Propagation medium was identical to stimulation medium without autologous serum, but supplemented with fetal calf serum 10% and T-cell growth factors from the supernatant of Con A stimulated spleen cells 10% (Mor et al. (1990) J Clin Invest, 85, 1594-1598). Animals were injected intra-peritoneally with 107 MBP-stimulated T cells, following 6-8 cycles of in vitro stimulations. It is known that MBP-reactive lines undergo a reduction in pathogenicity after 6 or more in vitro stimulations. In some experiments the BP10 line was stimulated with phorbol myristate acetate (PMA; 50 ng/ml) and ionomycin (500 ng/ml) for 3 days in stimulation medium, without antigen-presenting cells.
Active EAE was induced by subcutaneous injection of 25 μg guinea-pig MBP (GpMBP) in complete Freund's adjuvant (CFA). […] Adoptive EAE was transferred by intra-peritoneal injection of guinea-pig MBP-activated cells of the BP10 line as described in Mor et al. (1993) J Clin Invest, 92, 2199-2206. […] Clinical scoring was: +1, paralysis of tail; +1.5, paresis of posterior paws and ataxia; +2, paraplegia; +3, paralysis extending to thoracic spine; +4, a moribund state.
Treatment with cefuroxime in vivo could affect many different host agents involved in EAE or AA as well as influencing the rats' bacterial flora. To test whether the antibiotic might directly modify the behavior of effector T cells, an encephalitogenic T-cell line was stimulated in the presence or absence of cefuroxime in vitro. The weakly encephalitogenic BP10 line was used, and was stimulated for 3 days with MBP in the presence or absence of cefuroxime (50 μg/ml). The activated T cells were then washed to remove the antibiotic, the T cells were injected intra-peritoneally into naïve recipient rats (10^7 per rat), and EAE was scored. The BP10 line at later stimulations was used, when its pathogenic potential is reduced, allowing to detect both suppression and enhancement of disease. […] To rule out antigen presenting cells (APC) as the target of the beta-lactam antibiotic, the encephalitogenic BP10 line was stimulated without APC using PMA (50 ng/ml) and Ionomycin (500 ng/ml) in the presence or absence of cefuroxime.
Additional beta-lactam antibiotics were tested for their effect on the adoptive transfer of EAE.
A control group was injected with the untreated line.

CD4+ human T cells = assay: Human Autoimmune and Inflammatory Response Gene Array, anti-CD3-stimulated T cells with or without antibiotic; assay type: cell-based; conditions: 120 min anti-CD3; for % decrease by Cef: cefuroxime 50 μg/ml, ±SD, relative to control
Procedure: T cells were purified from the peripheral bloods of healthy human donors (Blood Bank, Sheba Medical center). The whole blood was incubated (20 min, 22° C.) with RosetteSep™ human T cell enrichment mixture (StemCell Technologies, Vancouver, Canada). The remaining unsedimented cells were then loaded onto lymphocyte separation medium (ICN Biomedicals, Irvine, Calif.), isolated by density centrifugation, and washed with PBS. […] In a second round of purification, CD3^+ T cells were labeled for selection with a magnetically coupled mAb against CD4 (Miltenyi Biotec, Auburn, Calif.).
Human CD4 T cells were isolated as described, and incubated in 24 well plates (Nunc), 4×10^6 cells/ml with plate bound anti-human CD3 (OKT3) at 2 μg/ml. The stimulation was performed in RPMI medium supplemented with 0.1% BSA. […] RNA was extracted from samples and used to prepare probes for gene array in accord with the manufacturer's instructions (SuperArray Bioscience, Frederick, Md.). Adequate labeling of the probes was tested before hybridization. Three healthy donors were tested in stimulation with cefuroxime. The membranes were analyzed online with the Image Data Acquisition and Expression Analysis (SuperArray Bioscience).
The Human Autoimmune and Inflammatory Response Gene Array (SuperArray Bioscience corporation, Frederick, Md., USA) was used for analysis of gene expression by the T cells. This array contains 367 genes including cytokines, chemokines and their receptors, transcription factors and signaling proteins. […] Analysis of the results was performed using the GEArray analysis program. […] To verify the results detected by the gene array study, a panel of six genes was designed and tested by real-time PCR: CCR4, ACVR2, JAK1, STAT4, TLR2 and NFKBIE. The cDNA that was used was prepared from the same RNA used for the gene array experiment.

CO/N=C(\C(=O)N[C@@H]1C(=O)N2C(C(=O)O)=C(COC(N)=O)CS[C@H]12)c1ccco1 [cefuroxime]
severity of adoptive EAE in recipient rats ([1]; BP10 line stimulated 3 days with MBP in presence of 50 μg/ml antibiotic, 10^7 cells per rat): markedly enhanced the manifestations of EAE | severity of adoptive EAE in recipient rats ([1]; BP10 line stimulated 3 days with MBP in presence of 50 μg/ml antibiotic, 10^7 cells per rat, listed as Cefuroxime): enhances the pathogenicity of the BP10 line | severity of adoptive EAE in recipient rats ([1]; BP10 line stimulated without APC using PMA (50 ng/ml) and Ionomycin (500 ng/ml)): significantly more severe | severity of adoptive EAE in recipient rats ([1]; dose-response, BP10 line stimulated with 5 μg/ml): ineffective | severity of adoptive EAE in recipient rats ([1]; dose-response, BP10 line stimulated with 25 μg/ml): enhancing effect similar to that of 50 μg/ml | number of genes down-regulated (CD4+ human T cells; array of 367 genes, 50 μg/ml): Fifty-seven | % decrease by Cef (CD4+ human T cells; gene ACTB): 49 ± 11% | % decrease by Cef (CD4+ human T cells; gene ACVR1): 42 ± 0.7% | % decrease by Cef (CD4+ human T cells; gene ACVR2): 60 ± 14.8% | % decrease by Cef (CD4+ human T cells; gene CCL5): 21 ± 5.6% | % decrease by Cef (CD4+ human T cells; gene CCL11): 18 ± 6.6% | % decrease by Cef (CD4+ human T cells; gene CCR4): 39 ± 2% | % decrease by Cef (CD4+ human T cells; gene CCR6): 53 ± 5.6% | % decrease by Cef (CD4+ human T cells; gene CCR7): 38 ± 8.1% | % decrease by Cef (CD4+ human T cells; gene CD28): 51 ± 2.1% | % decrease by Cef (CD4+ human T cells; gene CD40LG): 33 ± 7.1% | % decrease by Cef (CD4+ human T cells; gene CREB1): 19 ± 4.9% | % decrease by Cef (CD4+ human T cells; gene CREBBP): 40 ± 9.9% | % decrease by Cef (CD4+ human T cells; gene CXCL10): 39 ± 3% | % decrease by Cef (CD4+ human T cells; gene EGR3): 38 ± 2.8% | % decrease by Cef (CD4+ human T cells; gene GFI1): 45 ± 14% | % decrease by Cef (CD4+ human T cells; gene HRAS): 30 ± 9.8% | % decrease by Cef (CD4+ human T cells; gene IL1B): 54 ± 7.0% | % decrease by Cef (CD4+ human T cells; gene IL2RB): 50 ± 9.9% | % decrease by Cef (CD4+ human T cells; gene IL2RG): 57 ± 9.8% | % decrease by Cef (CD4+ human T cells; gene IL9R): 27.5 ± 3% | % decrease by Cef (CD4+ human T cells; gene IL16): 50 ± 7.8% | % decrease by Cef (CD4+ human T cells; gene IRAK1): 44 ± 2.1% | % decrease by Cef (CD4+ human T cells; gene JAK1): 53 ± 13.4% | % decrease by Cef (CD4+ human T cells; gene JUN): 49 ± 2.2% | % decrease by Cef (CD4+ human T cells; gene LTA): 17 ± 10% | % decrease by Cef (CD4+ human T cells; gene MAP2K4): 52 ± 14.1% | % decrease by Cef (CD4+ human T cells; gene MAP3K1): 53 ± 12% | % decrease by Cef (CD4+ human T cells; gene MAP3K2): 36 ± 12% | % decrease by Cef (CD4+ human T cells; gene MAP3K7): 46 ± 9.9% | % decrease by Cef (CD4+ human T cells; gene MAPK9): 42 ± 10.9% | % decrease by Cef (CD4+ human T cells; gene NFKB1): 43 ± 3.5% | % decrease by Cef (CD4+ human T cells; gene NFKB2): 53 ± 10.6% | % decrease by Cef (CD4+ human T cells; gene NFKBIE): 63 ± 11% | % decrease by Cef (CD4+ human T cells; gene NFKBIL1): 54 ± 12.5% | % decrease by Cef (CD4+ human T cells; gene PAK1): 40 ± 2.4% | % decrease by Cef (CD4+ human T cells; gene PIN1): 45 ± 12.1% | % decrease by Cef (CD4+ human T cells; gene RANBP5): 33 ± 3.5% | % decrease by Cef (CD4+ human T cells; gene REL): 45 ± 1.9% | % decrease by Cef (CD4+ human T cells; gene RFX5): 36 ± 4.2% | % decrease by Cef (CD4+ human T cells; gene RFXAP): 27 ± 12% | % decrease by Cef (CD4+ human T cells; gene SDF2): 28 ± 12% | % decrease by Cef (CD4+ human T cells; gene SELL): 46 ± 7.0% | % decrease by Cef (CD4+ human T cells; gene SMAD4): 47 ± 7.0% | % decrease by Cef (CD4+ human T cells; gene SMAD7): 47 ± 4.2% | % decrease by Cef (CD4+ human T cells; gene SP3): 39 ± 9.9% | % decrease by Cef (CD4+ human T cells; gene SRF): 38 ± 1.9% | % decrease by Cef (CD4+ human T cells; gene STAT1): 32 ± 11% | % decrease by Cef (CD4+ human T cells; gene STAT4): 47 ± 9.3% | % decrease by Cef (CD4+ human T cells; gene STAT6): 47 ± 7.9% | % decrease by Cef (CD4+ human T cells; gene TGFBR3): 44 ± 3.5% | % decrease by Cef (CD4+ human T cells; gene TGIF): 43 ± 3.5% | % decrease by Cef (CD4+ human T cells; gene TLR2): 52 ± 14% | % decrease by Cef (CD4+ human T cells; gene TNFRSF11): 43 ± 2% | % decrease by Cef (CD4+ human T cells; gene TNFα): 29 ± 8.5% | % decrease by Cef (CD4+ human T cells; gene TRAF5): 43 ± 2.2% | % decrease by Cef (CD4+ human T cells; gene TRAF6): 43 ± 3.5% | % decrease by Cef (CD4+ human T cells; gene YY1): 23 ± 9.1%
